# Values quoted from earlier work as cited in patent publication US8632826B2, “Cosmetic wrinkle treatment method based on a zanthoxylum bungeanum extract” (Indena S.p.A., priority 2009, dated 2014).
# Test system: thrombosis
smiles,measurement,value
COc1ccc2c(c[n+](C)c3c4cc5c(cc4ccc23)OCO5)c1OC [chelcrythrine],activity in the prevention of thrombosis,active in the prevention of thrombosis
